pKi: −log10 of the molar value.
Target: T1, Alpha-1A adrenergic receptor (Homo sapiens, UniProt P35348)
T1 sequence (P35348 whole entry): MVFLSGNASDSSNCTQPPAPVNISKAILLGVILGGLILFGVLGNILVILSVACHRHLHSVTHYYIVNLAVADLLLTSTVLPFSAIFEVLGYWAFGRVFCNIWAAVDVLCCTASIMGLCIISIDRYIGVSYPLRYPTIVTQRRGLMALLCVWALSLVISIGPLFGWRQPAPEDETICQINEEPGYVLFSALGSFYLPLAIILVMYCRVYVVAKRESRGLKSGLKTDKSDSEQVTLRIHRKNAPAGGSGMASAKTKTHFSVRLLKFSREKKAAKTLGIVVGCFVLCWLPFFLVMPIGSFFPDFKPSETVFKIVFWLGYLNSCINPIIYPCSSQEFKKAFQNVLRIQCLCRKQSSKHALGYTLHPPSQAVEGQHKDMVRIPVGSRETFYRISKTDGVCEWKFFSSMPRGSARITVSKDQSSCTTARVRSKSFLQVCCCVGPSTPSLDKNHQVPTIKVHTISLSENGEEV
Assay: Inhibition of [3H]prazosin binding to human adrenergic alpha-1A receptor expressed in CHO-K1 cell membranes

| Structure (SMILES) | pKi |
| --- | --- |
| Clc1ccc(C2(Cn3ccnc3)OCC(CN3CCN(CCc4ccccc4)CC3)O2)c(Cl)c1 (centres undefined) | 6.52 |
| COc1ccccc1N1CCN(CCCNc2cc(O)nc(Nc3c(Cl)cccc3Cl)n2)CC1 | 8.44 |
| Nc1ccc(C(=O)NCCN2CCC(c3cccc4[nH]ccc34)CC2)cc1 | 8.02 |
| O=C(NCCCCN1CCN(c2csc3cc(F)ccc23)CC1)c1cnccn1 | 8.85 |
